Columns and labels:
[1] = test system: donor one normal human dermal fibroblasts induced with TGF-β1; assay: Apoptosis assay (Caspase-Glo 3/7 luminescence); assay type: cell-based; conditions: for Apoptosis, relative light units: 50 ng/mL TGF-β1, 48 hours; for Effect on apoptosis (in words): statistics at 100 μM vs vehicle control and between groups (FIG. 6)
Method: The effect of sitaxentan on cell viability, cell cytotoxicity, and apoptosis was measured in an assay using donor one normal human dermal fibroblasts induced with TGF-β1 into a profibrotic phenotype. For these assays cells were grown for 48 hours in the presence of vehicle control, sitaxentan, and bosentan. The appropriate assay reagents and measuring techniques were used as indicated herein. donor one normal human dermal fibroblast cells (LLCT FC0024 lot 03869_ fibroblast) were seeded to confluence in 96 well plates in 10% fetal bovine serum (FBS) Dulbecco's modified eagle medium (DMEM). The cells were washed to remove the FBS, and serum free media is added overnight (O/N). The cells were then stimulated with 50 ng/mL TGF-β1 and treated for 48 hours. For the apoptosis assay: 100 μl of Caspase-Glo® 3/7 Reagent (Promega, Cat #G6320), for the apoptosis assay, was subsequently added after the viability/cytotoxicity fluorescent reads and briefly mixed. The plate was incubated for an additional 30 minutes at room temperature prior to the measurement of luminescence to detect apoptosis. Data were analyzed using GraphPad Prism 7. Six to nine replicates were run for each sample.

[2] = test system: donor one normal human dermal fibroblasts induced with TGF-β1; assay: Collagen production, AlphaLISA hPIP assay; assay type: cell-based; conditions: for human procollagen Type I C-peptide (HPIP) level: 50 ng/mL TGF-β1, 48 hours; for Effect on elevated collagen levels (in words): statistics at 100 μM vs vehicle control and between groups (FIG. 3)
Method: The effect of sitaxentan on collagen production was measured in an AlphaLISA assay using donor one normal human dermal fibroblasts induced with TGF-β1 into a profibrotic phenotype. For this assay cells were grown for 48 hours in the presence of vehicle control, sitaxentan, and bosentan. See, http://www.perkinelmer.com/product/alphalisa-hpip-collagen-[…]. An AlphaLISA assay was used, which is a variation of FRET (Fluorescence resonance energy transfer) technology that allows for the detection of molecules of interest in a no-wash, highly sensitive, quantitative assay. In an AlphaLISA assay, a biotinylated anti-analyte antibody binds to Streptavidin-coated donor beads while another anti-analyte antibody is conjugated to AlphaLISA Acceptor beads. In the presence of the analyte, the beads come into close proximity. The excitation of the donor beads cause the release of singlet oxygen molecules that trigger a cascade of energy transfer in the acceptor beads, resulting in a sharp peak of light emission at 615 nm. donor one normal human dermal fibroblast cells (LLCT FC0024 lot 03869_ fibroblast) were seeded to confluence in 96 well plates in 10% fetal bovine serum (FBS) Dulbecco's modified eagle medium (DMEM). The cells were washed to remove the FBS, and serum free media was added overnight (O/N). The cells were then stimulated with 50 ng/mL TGF-β1 and treated. The supernatant media above the cells in the wells was collected and diluted 1:20 in serum-free DMEM media. 5 μL of each hPIP analyte standard or 5 μL of sample was added. 10 μL of 5× […] Acceptor beads was added (10 μg/mL final). The plate was incubated 30 minutes at 23° C. 10 μL of 5× Biotinylated Anti-hPIP Antibody was added (1 nM). The plate was incubated 60 minutes at 23° C. 25 μL of 2× Streptavidin-Donor beads were added (40 μg/mL final). The plate was incubated 30 minutes at 23° C. in the dark. The plate was read using a Perkin Elmer EnVision-Alpha Reader (615 nm). Data were analyzed using GraphPad Prism 7. Three to four replicates were run for each sample.

[3] = test system: donor one normal human dermal fibroblasts induced with TGF-β1; assay: Cell viability assay (GF-AFC fluorescence); assay type: cell-based; conditions: 50 ng/mL TGF-β1, 48 hours
Method: (§1) The effect of sitaxentan on cell viability, cell cytotoxicity, and apoptosis was measured in an assay using donor one normal human dermal fibroblasts induced with TGF-β1 into a profibrotic phenotype. For these assays cells were grown for 48 hours in the presence of vehicle control, sitaxentan, and bosentan. The appropriate assay reagents and measuring techniques were used as indicated herein. donor one normal human dermal fibroblast cells (LLCT FC0024 lot 03869_ fibroblast) were seeded to confluence in 96 well plates in 10% fetal bovine serum (FBS) Dulbecco's modified eagle medium (DMEM). The cells were washed to remove the FBS, and serum free media is added overnight (O/N). The cells were then stimulated with 50 ng/mL TGF-β1 and treated for 48 hours. The following reagents were used for the different assays: For the cell viability/cytotoxicity assay: A master mix of the viability/cytotoxicity reagent was made by combining 10 uL of each substrate (GF-AFC and bis-AAF-R110) to 2 mLs of Assay Buffer (Promega, Cat #G6320). 20 μl of this viability/cytotoxicity reagent was then added to each well and briefly mixed. […] Data were analyzed using GraphPad Prism 7. Six to nine replicates were run for each sample.

[4] = test system: donor one normal human dermal fibroblasts induced with TGF-β1; assay: Scratch (wound closure) assay, donor one NHDFs induced with TGF-β1; assay type: cell-based; conditions: for Scratch assay distance change: 50 ng/mL TGF-β1, 24 hours; for Effect on migration of fibroblasts (in words): donor one NHDFs, statistics at 100 μM vs vehicle control (FIG. 1)
Method: The effect of sitaxentan in a wound closure assay was measured using donor one normal human dermal fibroblasts induced with TGF-β1 into a profibrotic phenotype. […] For this assay the cells were grown to confluence, a scratch/ablation, i.e. “wound”, was created, and migration across the cleared zone was tracked. See, http://journals.plos.org/plosone/article?id=10.1371/journal.pone.0007438 and Wu, M. et al. Rosiglitazone abrogates bleomycin-induced scleroderma and blocks profibrotic responses through peroxisome proliferator-activated receptor-gamma. Am J Pathol174, 519-533, doi:10.2353/ajpath.2009.080574 (2009) donor one normal human dermal fibroblast cells (LLCT FC0024 lot 03869_ fibroblast) were seeded to confluence in 96 well plates in 10% fetal bovine serum (FBS) Dulbecco's modified eagle medium (DMEM). The cells were washed to remove the FBS, and serum free media was added for 16 hr overnight (O/N). Scratch assays were performed across each confluent monolayer. […] The cells were treated with increasing concentrations (1 μM, 3 μM, 10 μM, 30 μM, and 100 μM) of vehicle control, sitaxentan, and bosentan (as a comparator compound), in the presence of 50 ng/mL TGF-β1 to induce fibrogenesis. Six replicate samples were run for each concentration. Time zero images were taken and initial distance of the scratch/ablation recorded. The samples were incubated for 24 hours at 37° C., after which the media was removed and […] calcein acetoxymethyl (calcein AM) was added. The samples were incubated for 30 minutes. Images were taken and the distance of the scratch/ablation recorded. Decreases in distance indicated “wound” closure. Distances were calculated and analyzed using GraphPad Prism 7.

[5] = test system: donor one normal human dermal fibroblasts induced with TGF-β1; assay: Cell cytotoxicity assay (bis-AAF-R110 fluorescence); assay type: cell-based; conditions: for Cell cytotoxicity, relative fluorescence units: 50 ng/mL TGF-β1, 48 hours; for Cytotoxicity compared to the vehicle control (in words): statistics at 100 μM (FIG. 5); for Cytotoxicity, bosentan compared with sitaxentan (in words): statistics at 100 μM between groups (FIG. 5)
Method: as §1

[6] = oral bosentan; cited from earlier work
[7] = in vivo; cited from earlier work

| SMILES | Apoptosis, relative light units ([1]; 1 μM) | Apoptosis, relative light units ([1]; 3 μM) | Apoptosis, relative light units ([1]; 10 μM) | Apoptosis, relative light units ([1]; 30 μM) | Apoptosis, relative light units ([1]; 100 μM) | Effect on apoptosis (in words) [1] | human procollagen Type I C-peptide (HPIP) level ([2]; 1 μM) | human procollagen Type I C-peptide (HPIP) level ([2]; 3 μM) | human procollagen Type I C-peptide (HPIP) level ([2]; 10 μM) | human procollagen Type I C-peptide (HPIP) level ([2]; 30 μM) | human procollagen Type I C-peptide (HPIP) level ([2]; 100 μM) | Effect on elevated collagen levels (in words) [2] | Cell viability, relative fluorescence units ([3]; 1 μM) | Cell viability, relative fluorescence units ([3]; 3 μM) | Cell viability, relative fluorescence units ([3]; 10 μM) | Cell viability, relative fluorescence units ([3]; 30 μM) | Cell viability, relative fluorescence units ([3]; 100 μM) | Scratch assay distance change ([4]; 1 μM) | Scratch assay distance change ([4]; 3 μM) | Scratch assay distance change ([4]; 10 μM) | further results |
| --- | --- | --- | --- | --- | --- | --- | --- | --- | --- | --- | --- | --- | --- | --- | --- | --- | --- | --- | --- | --- | --- |
| COc1ccccc1Oc1c(NS(=O)(=O)c2ccc(C(C)(C)C)cc2)nc(-c2ncccn2)nc1OCCO [BOS] | 39366.8 RLUs | 38639.8 RLUs | 38586.7 RLUs | 42825.2 RLUs | 43330.7 RLUs | elevated | 8.2 ng/mL | 8.6 ng/mL | 7.9 ng/mL | 7.1 ng/mL | 6.8 ng/mL | significantly decreased elevated collagen levels | 5406.8 RFUs | 5548.5 RFUs | 5521.2 RFUs | 5537.0 RFUs | 5584.3 RFUs | 478 µm | 356 µm | 359 µm | Scratch assay distance change ([4]; 30 μM): 535 µm; Scratch assay distance change ([4]; 100 μM): 414 µm; Effect on migration of fibroblasts (in words) [4]: no significant effect; Cell cytotoxicity, relative fluorescence units ([5]; 1 μM): 4256.9 RFUs; Cell cytotoxicity, relative fluorescence units ([5]; 3 μM): 3954.2 RFUs; Cell cytotoxicity, relative fluorescence units ([5]; 10 μM): 3764.0 RFUs; Cell cytotoxicity, relative fluorescence units ([5]; 30 μM): 4607.5 RFUs; Cell cytotoxicity, relative fluorescence units ([5]; 100 μM): 3929.0 RFUs; Cytotoxicity compared to the vehicle control (in words) [5]: neither bosentan nor sitaxentan was significantly more cytotoxic than the vehicle control; Cytotoxicity, bosentan compared with sitaxentan (in words) [5]: significantly more cytotoxic than sitaxentan; Cessation of treatment due to liver enzyme abnormalities, share of patients [6]: about 5%; Liver enzyme abnormalities, share of patients affected [6]: about 10% |
| Cc1cc2c(cc1CC(=O)c1sccc1S(=O)(=O)Nc1onc(C)c1Cl)OCO2 [SIT, N-(4-Chloro-3-methyl-5-isoxazolyl)-2-[(2-methyl-4,5-methylenedioxyphenyl)-acetyl]thiophene-3-sulfonamide] | 37593.4 RLUs | 39162.8 RLUs | 39512.0 RLUs | 46053.5 RLUs | 51050.2 RLUs | significantly more potent effect than bosentan | 7.0 ng/mL | 7.1 ng/mL | 6.4 ng/mL | 5.8 ng/mL | 2.2 ng/mL | significantly more efficacious than bosentan and returning collagen levels to untreated / uninduced levels | 5678.3 RFUs | 5639.0 RFUs | 5600.5 RFUs | 5250.8 RFUs | 5171.0 RFUs | 506 µm | 557 µm | 496 µm | Metabolism [7]: hepatic (CYP2C9- and CYP3A4-mediated); Protein binding [7]: > 99%; Scratch assay distance change ([4]; 30 μM): 494 µm; Scratch assay distance change ([4]; 100 μM): 269 µm; Effect on migration of fibroblasts (in words) [4]: significantly reduced the migration; Cell cytotoxicity, relative fluorescence units ([5]; 1 μM): 4643.9 RFUs; Cell cytotoxicity, relative fluorescence units ([5]; 3 μM): 5058.3 RFUs; Cell cytotoxicity, relative fluorescence units ([5]; 10 μM): 4741.7 RFUs; Cell cytotoxicity, relative fluorescence units ([5]; 30 μM): 3837.5 RFUs; Cell cytotoxicity, relative fluorescence units ([5]; 100 μM): 2911.3 RFUs; Cytotoxicity compared to the vehicle control (in words) [5]: neither bosentan nor sitaxentan was significantly more cytotoxic than the vehicle control; Cytotoxicity, bosentan compared with sitaxentan (in words) [5]: significantly less cytotoxic |

Source: patent publication US20210038570A1, “COMPOSITIONS AND METHODS FOR TREATING CUTANEOUS FIBROSIS” (Timber Pharmaceuticals, Inc., priority 2018, published 2021)
